Converted amounts (≈) assume the structure as drawn.
Experiments:
[1] = Inhibition of PI3K (unknown origin); design: species or system Homo sapiens
[2] = Inhibition of human recombinant Phosphatidylinositol 4-kinase type 3-alpha expressed in Sf9 cells assessed as reduction in […] by pyruvate kinase and lactate dehydrogenase coupled assay
[3] = Inhibition of human recombinant Phosphatidylinositol 4-kinase type 3-beta expressed in Sf9 cells assessed as reduction in […] by pyruvate kinase and lactate dehydrogenase coupled assay
[4] = system: Hepatitis C virus; assay: Antiviral activity against Hepatitis C virus genotype 1b Con1 infected in HuH7 cells by cell based replicon assay; format: functional, Hepacivirus hominis; conditions: genotype 1b Con1, Huh-7
[5] = system: Hepatitis C virus; assay: Antiviral activity against Hepatitis C virus subtype 1a infected in HuH7 cells by cell based replicon assay; format: functional, Hepacivirus hominis; conditions: Huh-7
[6] = system: Hepatitis C virus; assay: Antiviral activity against Hepatitis C virus subtype 2a JFH-1 infected in HuH7 cells by cell based replicon assay; format: functional, Hepacivirus hominis; conditions: genotype 2a JFH-1, Huh-7
[7] = Cytotoxicity against Hepatitis C virus genotype 1b Con1 infected human HuH7 cells after 48 hrs by MTT assay; format: cell-based, Huh-7; conditions: HuH7 cells infected with Hepatitis C virus genotype 1b Con1
[8] = Aqueous solubility at room temperature after 24 hrs by HPLC method; format: physicochemical; conditions: aqueous medium

Row | IC50 [1] [nM] | IC50 [2] [nM] | IC50 [3] [nM] | EC50 [4] [nM] | EC50 [5] [nM] | EC50 [6] [nM] | solubility at 24 h [8] [µM] | Structure (SMILES) | CC50 at 48 h [7] [nM]
1 | 2400 | > 10000 | 135 | 1020 | 1580 | 1820 | < 2 | Cc1ccc(-c2cnc(C3CC3)o2)cc1S(=O)(=O)Nc1ccccc1Cl | > 31000
2 | > 9100 |  | 49 | 99 | 166 |  | 220 (≈ 82.8 µg/mL) | Cc1ccc(-c2cnc(C3CC3)o2)cc1S(=O)(=O)N[C@H]1CC[C@H](O)CC1 | > 31000
3 |  |  | > 2500 | 6730 | 2100 |  |  | Cc1cc(-c2cnc(C3CC3)o2)cc(S(=O)(=O)N[C@H]2CC[C@H](O)CC2)c1C | > 31000
4 | 6290 | > 10000 | 18 | 46 | 59 | 375 |  | Cc1ccc(-c2oc(C3CC3)nc2C)cc1S(=O)(=O)N[C@H]1CC[C@H](O)CC1 | > 31000
5 | 8200 | > 10000 | 19 | 34 | 66 | 324 |  | COc1ccc(-c2oc(C3CC3)nc2C)cc1S(=O)(=O)N[C@H]1CC[C@H](O)CC1 | > 31000
6 |  |  | 1610 | > 10000 |  |  |  | COc1ccc(-c2ocnc2C)cc1S(=O)(=O)N[C@H]1CC[C@H](O)CC1 | > 31000
7 |  |  | 414 | 3210 |  |  |  | COc1ccc(-c2oc(C)nc2C)cc1S(=O)(=O)N[C@H]1CC[C@H](O)CC1 | > 31000
8 |  |  | 28 | 41 | 86 | 147 |  | COc1ccc(-c2oc(C3(C)CC3)nc2C)cc1S(=O)(=O)N[C@H]1CC[C@H](O)CC1 | > 31000
9 |  |  | 9 | 30 |  |  |  | COc1ccc(-c2oc(C3CCCC3)nc2C)cc1S(=O)(=O)N[C@H]1CC[C@H](O)CC1 | > 31000
10 |  |  | 19 | 108 |  |  |  | COc1ccc(-c2oc(C3CCCCC3)nc2C)cc1S(=O)(=O)N[C@H]1CC[C@H](O)CC1 | > 31000
11 |  |  | 9 | 32 |  |  |  | COc1ccc(-c2oc(C3CCC(CO)CC3)nc2C)cc1S(=O)(=O)N[C@H]1CC[C@H](O)CC1 (some centres undefined) | > 31000
12 |  |  | 36 | 402 |  |  |  | COc1ccc(-c2oc(C3CCOCC3)nc2C)cc1S(=O)(=O)N[C@H]1CC[C@H](O)CC1 | > 31000
13 |  |  | 37 | 193 |  |  |  | COc1ccc(-c2oc(-c3ccccc3)nc2C)cc1S(=O)(=O)N[C@H]1CC[C@H](O)CC1 | > 31000
14 |  |  | 191 | 410 |  |  |  | COc1ccc(-c2oc(-c3ccncc3)nc2C)cc1S(=O)(=O)N[C@H]1CC[C@H](O)CC1 | > 31000
15 |  |  | 4 | 41 | 53 | 383 |  | COc1ccc(-c2oc(Cc3ccccc3)nc2C)cc1S(=O)(=O)N[C@H]1CC[C@H](O)CC1 | > 31000
16 |  |  | > 2500 | > 30000 |  |  |  | COc1ccc(-c2oc(C3CC3)nc2C)cc1 | > 31000
17 |  |  | 76 | 120 |  |  |  | COc1ccc(-c2oc(C3CC3)nc2C)cc1S(C)(=O)=O | > 31000
18 |  |  | 79 | 67 |  |  |  | COc1ccc(-c2oc(C3CC3)nc2C)cc1S(=O)(=O)CC1CCC(O)CC1 (centres undefined) | > 31000
19 |  |  | 9730 | 3560 |  |  |  | COc1ccc(-c2oc(C3CC3)nc2C)cc1C(=O)N[C@H]1CC[C@H](O)CC1 | > 31000
20 |  |  | 11 | < 30 |  |  |  | COc1ccc(-c2oc(C3CC3)nc2C)cc1S(=O)(=O)Nc1cccc(C#N)c1 | > 31000
21 |  |  | 27 | 43 |  |  |  | COc1ccc(-c2oc(C3CC3)nc2C)cc1S(=O)(=O)NCCO | > 31000
22 |  |  | 64 | 67 |  |  |  | COc1ccc(-c2oc(C3CC3)nc2C)cc1S(N)(=O)=O | > 31000
23 |  |  | 33 | 114 |  |  |  | COc1ccc(-c2oc(C3CC3)nc2C)cc1S(=O)(=O)NCC(C)(C)O | > 31000
24 |  |  | 37 | 193 |  |  |  | COc1ccc(-c2cnc(C3CC3)o2)cc1S(=O)(=O)N[C@H]1CC[C@H](O)CC1 | > 31000
25 |  |  | 54 | 356 |  |  |  | COc1ccc(-c2cc(C3CC3)nn2C)cc1S(=O)(=O)N[C@H]1CC[C@H](O)CC1 | > 31000
26 |  |  | 1040 | 9950 |  |  |  | COc1ccc(-c2[nH]c(C3CC3)nc2C)cc1S(=O)(=O)N[C@H]1CC[C@H](O)CC1 | > 31000

From ChEMBL document CHEMBL3351967, “2-Alkyloxazoles as potent and selective PI4KIIIβ inhibitors demonstrating inhibition of HCV replication” (Bioorg Med Chem Lett, 2014)
